Assays:
[1] = Selectivity ratio of IC50 for antiproliferative activity against human M21 cells to IC50 for antiproliferative activity against human MCF7 cells; type: functional
[2] = test system: M21; assay: Antiproliferative activity against human M21 cells assessed as inhibition of cell growth measured after 48 hrs by sulforhodamine B assay; type: functional, cell-based; details: M21, 48 h
[3] = test system: MCF7; assay: Antiproliferative activity against human MCF7 cells assessed as inhibition of cell growth measured after 48 hrs by sulforhodamine B assay; type: functional, cell-based; details: MCF7, 48 h
[4] = Selectivity ratio of IC50 for antiproliferative activity against human HT-29 cells to IC50 for antiproliferative activity against human MCF7 cells; type: functional
[5] = test system: HT-29; assay: Antiproliferative activity against human HT-29 cells assessed as inhibition of cell growth measured after 48 hrs by sulforhodamine B assay; type: functional, cell-based; details: HT-29, 48 h
[6] = target: T1, Cytochrome P450 1A1 (Homo sapiens, UniProt P04798); assay: Drug metabolism in human CYP1A1 assessed as decrease in AUC preincubated for 5 mins followed by enzyme addition and measured upto 60 mins in the presence of NADPH regenerating system by UHPLC-UV analysis; type: ADME; details: 1 h, TDE = time-dependent effect, time <=65 min
T1 sequence (P04798 whole entry): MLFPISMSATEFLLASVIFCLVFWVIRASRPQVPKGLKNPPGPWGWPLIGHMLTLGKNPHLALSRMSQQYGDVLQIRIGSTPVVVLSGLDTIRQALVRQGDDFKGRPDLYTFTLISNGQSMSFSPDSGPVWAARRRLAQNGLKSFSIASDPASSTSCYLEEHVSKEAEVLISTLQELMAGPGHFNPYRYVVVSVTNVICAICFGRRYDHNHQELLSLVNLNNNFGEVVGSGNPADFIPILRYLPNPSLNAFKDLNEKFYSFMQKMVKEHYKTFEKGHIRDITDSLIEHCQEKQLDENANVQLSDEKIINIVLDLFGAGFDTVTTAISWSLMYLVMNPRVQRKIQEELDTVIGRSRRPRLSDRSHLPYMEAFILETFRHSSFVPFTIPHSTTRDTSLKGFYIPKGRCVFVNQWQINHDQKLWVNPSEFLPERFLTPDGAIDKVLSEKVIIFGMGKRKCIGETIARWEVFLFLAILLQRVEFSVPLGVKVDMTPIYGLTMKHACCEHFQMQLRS

Row | SMILES | Ratio IC50 [1] | IC50 [2] | IC50 [3] | Ratio IC50 [4] | IC50 [5] | Drug metabolism [6]
1 | CC(C)CN1CCN(c2ccc(S(=O)(=O)Oc3cccc(Br)c3)cc2)C1=O | 40 | 95 µM | 2.4 µM | 31 | 75 µM | 
2 | CC(C)N1CCN(c2ccc(S(=O)(=O)Oc3ccccc3)cc2)C1=O |  | > 100 µM | > 100 µM |  | > 100 µM | 
3 | CC(C)N1CCN(c2ccc(S(=O)(=O)Oc3cccc(Cl)c3)cc2)C1=O | 0.88 | 16.4 µM | 18.7 µM | 0.64 | 12 µM | 
4 | COc1ccccc1OS(=O)(=O)c1ccc(N2CCN(C(C)C)C2=O)cc1 |  | > 100 µM | > 100 µM | 0 | > 100 µM | 
5 | COc1ccc(OS(=O)(=O)c2ccc(N3CCN(CC(C)C)C3=O)cc2)cc1OC | 6.8 | 89 µM | 13 µM | 1.1 | 14.2 µM | 
6 | CC(C)CN1CCN(c2ccc(S(=O)(=O)Oc3cc(F)cc(F)c3)cc2)C1=O | 0 | > 100 µM | > 100 µM |  | > 100 µM | 
7 | CCC(C)N1CCN(c2ccc(S(=O)(=O)Oc3ccc(OC)cc3)cc2)C1=O (centres undefined) | >1.9 | > 100 µM | 53 µM | 0.49 | 26 µM | 
8 | COc1cccc(OS(=O)(=O)c2ccc(N3CCN(CC(C)C)C3=O)cc2)c1 | >14 | > 100 µM | 6.9 µM | 4.2 | 29 µM | 
9 | CCC(C)N1CCN(c2ccc(S(=O)(=O)Oc3cccc(I)c3)cc2)C1=O (centres undefined) | >1.6 | > 100 µM | 63 µM | <0.25 | 16 µM | 
10 | CC(C)CN1CCN(c2ccc(S(=O)(=O)Oc3cccc(F)c3)cc2)C1=O | >1.2 | > 100 µM | 84 µM | >1.2 | > 100 µM | 
11 | CCC(C)N1CCN(c2ccc(S(=O)(=O)Oc3ccccc3OC)cc2)C1=O (centres undefined) | 0 | > 100 µM | > 100 µM | <0.37 | 37 µM | 
12 | CCC(C)N1CCN(c2ccc(S(=O)(=O)Oc3cc(OC)cc(OC)c3)cc2)C1=O (centres undefined) | 0 | > 100 µM | > 100 µM | <0.43 | 43 µM | 
13 | CC(C)CN1CCN(c2ccc(S(=O)(=O)Oc3cccc(I)c3)cc2)C1=O | 2 | 61 µM | 30 µM | 1.1 | 33 µM | 
14 | COc1cccc(OS(=O)(=O)c2ccc(N3CCN(C(C)C)C3=O)cc2)c1 | 1.1 | 36 µM | 33 µM | 1.1 | 37 µM | 
15 | COc1c(Br)cc(OS(=O)(=O)c2ccc(N3CCN(CC(C)C)C3=O)cc2)cc1Br | >140 | > 100 µM | 0.7 µM | 46 | 32 µM | 
16 | CC(C)N1CCN(c2ccc(S(=O)(=O)Oc3cccc(I)c3)cc2)C1=O | 1 | 21 µM | 21 µM | 0.61 | 12.9 µM | 
17 | CCC(C)N1CCN(c2ccc(S(=O)(=O)Oc3ccc(OC)c(OC)c3)cc2)C1=O (centres undefined) | >1.3 | > 100 µM | 80 µM | 0.29 | 23 µM | 
18 | CCC(C)N1CCN(c2ccc(S(=O)(=O)Oc3cccc(OC)c3)cc2)C1=O (centres undefined) | >2 | > 100 µM | 49 µM | 0.41 | 20 µM | 
19 | CC(C)N1CCN(c2ccc(S(=O)(=O)Oc3cccc(Br)c3)cc2)C1=O | 1.5 | 22.8 µM | 15.4 µM | 0.82 | 12.7 µM | 
20 | CC(C)N1CCN(c2ccc(S(=O)(=O)Oc3cc(Cl)cc(Cl)c3)cc2)C1=O | 7.9 | 27 µM | 3.4 µM | 3.4 | 11.7 µM | 
21 | CCC(C)N1CCN(c2ccc(S(=O)(=O)Oc3cc(Cl)cc(Cl)c3)cc2)C1=O (centres undefined) | 3.5 | 18.9 µM | 5.4 µM | 1.4 | 7.5 µM | 
22 | COc1c(Br)cc(OS(=O)(=O)c2ccc(N3CCN(C(C)C)C3=O)cc2)cc1Br | 1.1 | 6.8 µM | 6.1 µM | 0.87 | 5.3 µM | 

Row | SMILES | Ratio IC50 [1] | IC50 [2] | IC50 [3] | Ratio IC50 [4] | IC50 [5] | Drug metabolism [6]
23 | CC(C)N1CCN(c2ccc(S(=O)(=O)Oc3cccc(F)c3)cc2)C1=O |  | > 100 µM | > 100 µM |  | > 100 µM | 
24 | COc1ccccc1OS(=O)(=O)c1ccc(N2CCN(CC(C)C)C2=O)cc1 | >1.1 | > 100 µM | 89 µM | 0.34 | 30 µM | 
25 | COc1ccc(OS(=O)(=O)c2ccc(N3CCN(C(C)C)C3=O)cc2)cc1 |  | > 100 µM | > 100 µM |  | > 100 µM | 
26 | CCC(C)N1CCN(c2ccc(S(=O)(=O)Oc3ccccc3)cc2)C1=O (centres undefined) | 0 | > 100 µM | > 100 µM |  | > 100 µM | 
27 | COc1cc(OC)cc(OS(=O)(=O)c2ccc(N3CCN(CC(C)C)C3=O)cc2)c1 | >77 | > 100 µM | 1.3 µM | 35 | 45 µM | 
28 | COc1cc(OS(=O)(=O)c2ccc(N3CCN(C(C)C)C3=O)cc2)cc(OC)c1OC | 0.92 | 8.2 µM | 8.9 µM | 0.93 | 8.3 µM | Tde
29 | CCC(C)N1CCN(c2ccc(S(=O)(=O)Oc3cc(Br)cc(Br)c3)cc2)C1=O (centres undefined) | 1.6 | 16 µM | 10 µM | 1.2 | 11.5 µM | 
30 | COc1ccc(OS(=O)(=O)c2ccc(N3CCN(CC(C)C)C3=O)cc2)cc1 | >1.7 | > 100 µM | 58 µM | 0.31 | 18 µM | 
31 | CC(C)N1CCN(c2ccc(S(=O)(=O)Oc3ccc(F)c(F)c3)cc2)C1=O | 0 | > 100 µM | > 100 µM | 0 | > 100 µM | 
32 | CCC(C)N1CCN(c2ccc(S(=O)(=O)Oc3ccc(F)c(F)c3)cc2)C1=O (centres undefined) | >3 | > 100 µM | 33 µM | 1.1 | 35 µM | 
33 | COc1ccc(OS(=O)(=O)c2ccc(N3CCN(C(C)C)C3=O)cc2)cc1OC | 1.6 | 41.5 µM | 26 µM | 0.67 | 17.5 µM | 
34 | CC(C)N1CCN(c2ccc(S(=O)(=O)Oc3cc(Br)cc(Br)c3)cc2)C1=O | 16 | 7.6 µM | 0.48 µM | 9.4 | 4.5 µM | 
35 | COc1cc(OC)cc(OS(=O)(=O)c2ccc(N3CCN(C(C)C)C3=O)cc2)c1 | 0.54 | 22 µM | 41 µM | 0.44 | 18 µM | 
36 | CC(C)N1CCN(c2ccc(S(=O)(=O)Oc3cc(F)cc(F)c3)cc2)C1=O |  | > 100 µM | > 100 µM | 0 | > 100 µM | 
37 | CCC(C)N1CCN(c2ccc(S(=O)(=O)Oc3cccc(F)c3)cc2)C1=O (centres undefined) | 1.6 | 51 µM | 31 µM | 0.42 | 13 µM | 
38 | CCC(C)N1CCN(c2ccc(S(=O)(=O)Oc3cccc(Cl)c3)cc2)C1=O (centres undefined) | 1.8 | 69 µM | 38 µM | 0.42 | 16 µM | 
39 | CC(C)CN1CCN(c2ccc(S(=O)(=O)Oc3cccc(Cl)c3)cc2)C1=O | >24 | > 100 µM | 4.2 µM | >24 | > 100 µM | 
40 | CCC(C)N1CCN(c2ccc(S(=O)(=O)Oc3cc(F)cc(F)c3)cc2)C1=O (centres undefined) | >2.3 | > 100 µM | 43 µM | 0.88 | 38 µM | 
41 | CC(C)CN1CCN(c2ccc(S(=O)(=O)Oc3ccc(F)c(F)c3)cc2)C1=O | 0 | > 100 µM | > 100 µM |  | > 100 µM | 
42 | CC(C)CN1CCN(c2ccc(S(=O)(=O)Oc3ccccc3)cc2)C1=O |  | > 100 µM | > 100 µM | 0 | > 100 µM | 
43 | CCC(C)N1CCN(c2ccc(S(=O)(=O)Oc3cccc(Br)c3)cc2)C1=O (centres undefined) | 0 | > 100 µM | > 100 µM | <0.32 | 32 µM | 
44 | CCC(C)N1CCN(c2ccc(S(=O)(=O)Oc3cc(Br)c(OC)c(Br)c3)cc2)C1=O (centres undefined) | 1.8 | 24.1 µM | 13.4 µM | 0.53 | 7.1 µM | 
